Active and inactive are the calls of the source.
Experiments:
[1] = biological target: Lysosomal acid glucosylceramidase (Homo sapiens, UniProt P04062); assay: Dose response cell-based high throughput screening assay to identify enhancers of beta-glucosidase activity. [Related pubchem assays: 784 ]; assay type: functional
[2] = biological target: Mothers against decapentaplegic homolog 3 (Homo sapiens, UniProt P84022); assay: blockers of Smad3 complex formation in lysate – cell lysate, secondary confirmation, chemiluminescent ELISA, HEK293 lysate, dose response (AID 1058); assay type: functional
Cytochrome P450 2C19 = Cytochrome P450 2C19 (Homo sapiens, UniProt P33261); assay: qHTS Assay for Inhibitors and Substrates of Cytochrome P450 2C19. [Related pubchem assays: 410 ]; assay type: ADME; details: read-out: Potency
[3] = blockers of HIV-1 envelope-mediated cell-cell fusion – cherry-pick, dose response (AID 652057); assay type: functional, cell-based
[4] = blockers of HIV-1 ZM109 envelope-driven cell-cell fusion – HeLa effector, CEM target cells, luciferase, cherry-pick, dose response (AID 652058); assay type: functional, cell-based;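 further: luciferase signal from HIV-1 Env mediated cell-cell fusion of effector and target cells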
Cytochrome P450 2C9 = Cytochrome P450 2C9 (Homo sapiens, UniProt P11712); details: Potency
[5] = HIV-1 AD8 envelope cell-cell fusion blockers – cherry-pick, dose response (AID 652062); assay type: functional, cell-based;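 further: luciferase signal from cell-cell fusion driven by HIV-1 clade B AD8 Env; potency is for inhibitors of fusion seen as a drop in luminescence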
[6] = viability loss in CEM21 cells – cell-based, CellTiter-Glo luminescence, cherry-picked, cytotoxicity control for viral fusion inhibitor project, dose response (AID 652042); assay type: functional;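 further: potency for signal decrease meaning cytotoxicity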
[7] = off-target signal loss in HeLa-CEM21 co-culture – HeLa F-luc CTL cells, cherry-picked, counter-screen for HIV-1 Env fusion inhibitor project, dose response (AID 652040); assay type: functional, cell-based;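 further: potency for signal decrease marking cytotoxic or nonspecific inhibition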
[8] = biological target: Nucleotide-binding oligomerization domain-containing protein 2 (Homo sapiens, UniProt Q9HC29); assay: PubChem AID 2334; assay type: functional
Tumor necrosis factor = Tumor necrosis factor (Homo sapiens, UniProt P01375); assay: analog potency on TNFa NF-kB signaling – cell-based, revised, SAR follow-up (AID 2337); assay type: functional
HEK293 = assay: cells; details: Homo sapiens;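 further: cells exposed to compound for 14 hours overnight before viability readout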
[9] = biological target: T1, Nucleotide-binding oligomerization domain-containing protein 1 (Homo sapiens, UniProt Q9Y239); assay: blockers of NOD1 pathway activity – revised, SAR follow-up (AID 2333); assay type: functional
T1 sequence (Q9Y239 whole entry): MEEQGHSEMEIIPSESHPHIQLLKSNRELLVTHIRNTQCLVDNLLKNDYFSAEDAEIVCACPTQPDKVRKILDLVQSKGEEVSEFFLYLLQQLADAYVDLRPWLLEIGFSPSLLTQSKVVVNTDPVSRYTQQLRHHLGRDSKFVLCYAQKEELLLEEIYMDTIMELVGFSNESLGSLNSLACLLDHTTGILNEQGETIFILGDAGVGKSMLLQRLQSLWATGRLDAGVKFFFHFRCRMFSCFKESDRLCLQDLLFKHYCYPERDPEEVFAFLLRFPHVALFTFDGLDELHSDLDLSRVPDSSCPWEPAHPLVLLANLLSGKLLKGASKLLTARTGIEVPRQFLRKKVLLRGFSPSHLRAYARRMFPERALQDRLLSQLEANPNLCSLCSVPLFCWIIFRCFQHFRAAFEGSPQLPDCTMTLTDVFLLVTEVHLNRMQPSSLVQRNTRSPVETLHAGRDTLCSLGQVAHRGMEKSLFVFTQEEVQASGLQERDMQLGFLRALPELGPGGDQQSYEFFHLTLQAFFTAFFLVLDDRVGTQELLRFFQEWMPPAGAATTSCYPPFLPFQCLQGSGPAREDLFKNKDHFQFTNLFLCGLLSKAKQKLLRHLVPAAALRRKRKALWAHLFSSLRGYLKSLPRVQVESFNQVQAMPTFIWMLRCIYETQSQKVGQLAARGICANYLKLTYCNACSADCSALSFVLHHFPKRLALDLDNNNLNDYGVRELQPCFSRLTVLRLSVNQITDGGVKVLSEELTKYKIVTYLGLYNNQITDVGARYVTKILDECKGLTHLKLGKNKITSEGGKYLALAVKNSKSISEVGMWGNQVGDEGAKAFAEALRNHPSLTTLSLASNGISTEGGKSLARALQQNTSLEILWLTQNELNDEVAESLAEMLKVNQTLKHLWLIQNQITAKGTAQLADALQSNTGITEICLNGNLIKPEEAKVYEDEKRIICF

Interleukin-8 = biological target: T2, Interleukin-8 (Homo sapiens, UniProt P10145); assay: SAR analysis of tumor necrosis factor alpha (TNF-alpha) induced IL-8 secretion in MCF-7/NOD1 cells. [Related pubchem assays (depositor defined):AID1575, AID2250, AID2260]; assay type: functional, cell-based
T2 sequence (P10145 whole entry): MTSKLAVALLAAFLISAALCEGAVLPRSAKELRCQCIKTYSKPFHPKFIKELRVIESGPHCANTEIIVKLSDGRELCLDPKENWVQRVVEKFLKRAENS

[10] = Luminescence Cell-Based Dose Confirmation HTS to Identify Inhibitors of Platelet Dense Granule Release. [Related pubchem assays: 1663 (Primary HTS), 1678 (Summary of Project)]; assay type: functional
[11] = ADP-Glo luciferase signal interference – biochemical, luminescence, cherry-picked samples, set 2, artefact control for CDK5 inhibitor project, dose response (AID 504546); assay type: functional, cell-based
Protein Rev = Protein Rev (Human immunodeficiency virus type 1 group M subtype B (isolate WMJ22)(HIV-1), UniProt P05866); assay: inhibitors of Rev protein–RRE RNA complex – biochemical, protein-RNA interaction, dose response (AID 842); parameters: species or system Human immunodeficiency virus 1
[12] = biological target: Scavenger receptor class B member 1 (Mus musculus, UniProt Q61009); assay: mouse SR-BI DiI-HDL uptake blockers – ldlA[mSR-BI] cells, fluorescence, cherry pick, dose response (AID 493194); assay type: functional, cell-based;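 further: cellular uptake of fluorescent DiI-labeled HDL measured as cell fluorescence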
Staphylococcus aureus = assay: Inhibitors of Bacterial Quorum Sensing Structure Activity Relationship (SAR) Analysis: Dose Response Assay. [Related pubchem assays: 700, 527 ]; assay type: functional, organism-based
[13] = microbe, parasite or virus in culture; assay type: functional; details: Mycobacterium tuberculosis
Wee1-like protein kinase = Wee1-like protein kinase (Homo sapiens, UniProt P30291); assay: Dose Response Cell-based Assay for Inhibitors of Wee1 Degradation. [Related pubchem assays: 1410, 1321 ]; assay type: functional
HeLa = assay: Cytotoxicity counterscreen assay for transcriptional activators of heat shock protein 70 (Hsp70). [Related pubchem assays: 1203, 1252 ]; assay type: functional; details: Homo sapiens
[14] = biological target: T3, Type-1 angiotensin II receptor (Homo sapiens, UniProt P30556); assay: antagonism of angiotensin II type 1 receptor – cell-based, uHTS hits, selectivity assay for APJ receptor antagonist project, dose response (AID 463214); assay type: functional;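 further: antagonist potency against angiotensin II stimulated AT1 response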
T3 sequence (P30556 whole entry): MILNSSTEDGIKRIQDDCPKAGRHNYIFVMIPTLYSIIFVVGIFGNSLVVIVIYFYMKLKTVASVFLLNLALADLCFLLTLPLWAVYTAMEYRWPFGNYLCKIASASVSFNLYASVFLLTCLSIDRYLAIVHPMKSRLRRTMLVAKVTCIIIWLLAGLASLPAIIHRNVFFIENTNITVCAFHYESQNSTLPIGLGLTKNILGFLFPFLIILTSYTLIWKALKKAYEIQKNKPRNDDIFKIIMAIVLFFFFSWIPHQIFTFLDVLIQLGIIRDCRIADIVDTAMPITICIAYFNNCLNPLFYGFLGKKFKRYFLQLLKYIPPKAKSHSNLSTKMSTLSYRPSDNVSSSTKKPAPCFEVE

[15] = HEK-293T viability loss after treatment – luminescence, T-cell screen hits, cytotoxicity control for TCR NF-kB inhibitor project, dose response (AID 489026); assay type: functional, cell-based;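 further: cells exposed to compound about 14 hours before the viability readout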
[16] = biological target: T4, Kappa-type opioid receptor (Homo sapiens, UniProt P41145); assay type: functional
[17] = biological target: T4, Kappa-type opioid receptor; assay type: functional; remark: listed apart in the source
[18] = biological target: Sphingosine 1-phosphate receptor 2 (Homo sapiens, UniProt O95136); assay: Dose Response Cell Based Assay for Antagonists of the S1P2 Receptor. [Related pubchem assays: 856, 736 ]; assay type: functional
Beta-galactosidase [19] = biological target: T5, Beta-galactosidase (Escherichia coli, UniProt Q8VNN2); assay: PubChem AID 485352; assay type: functional
Beta-galactosidase [20] = biological target: T5, Beta-galactosidase; assay type: functional
[21] = biological target: Sphingosine 1-phosphate receptor 1 (Homo sapiens, UniProt P21453); assay type: functional;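 further: Tango beta-arrestin reporter U2OS cells stimulated with S1P near its EC80; inhibitor potency meaning antagonism of receptor activation by the natural agonist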
[22] = biological target: Sphingosine 1-phosphate receptor 4 (Homo sapiens, UniProt O95977); assay: Fluorescence dose response cell-based high throughput screening assay for antagonists of the Sphingosine 1-Phosphate Receptor 4 (S1P4). [Related pubchem assays: 1524 (Confirmation in triplicates.), 1510 (Primary screen.)]; assay type: functional
INS1 = assay: INS-1E survival protection against cytokine death – cell-based, luminescence, retest, dose response (AID 449756); assay type: functional; details: Rattus norvegicus;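 further: cell death triggered by IL-1 beta plus TNF-alpha plus IFN-gamma mixture; protective hits raise ATP signal compared with cytokine alone wells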
[23] = biological target: Luciferin 4-monooxygenase (Photinus pyralis, UniProt P08659); assay: inhibition of purified Photinus pyralis luciferase – biochemical, luminescence, dose response (AID 1891)
[24] = biological target: E3 ubiquitin-protein ligase Mdm2 (Homo sapiens, UniProt Q00987); assay: MDM2-luc reporter signal enhancers, multi-concentration potency testing, MDM2 ubiquitin-protein ligase inhibitor program, whole-cell format, luminescence detection, 384-well microplate (AID 1394); assay type: functional;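 further: MDM2 E3 inhibitors raise luminescence so EC50 is for signal enhancement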
[25] = biological target: G2/mitotic-specific cyclin-B1 (Homo sapiens, UniProt P14635); assay: Counterscreen assay for inhibitors of Wee1 degradation: dose response cell-based assay to identify inhibitors of cyclin B degradation. [Related pubchem assays: 1410, 1321 ]; assay type: functional
[26] = Luminescence-based dose response cell-based high throughput screening assay for cytotoxic compounds using the IEC-6 intestinal epithelial cell line. [Related pubchem assays: 1858 (Summary AID.), 1825 (Counterscreen.), 1907 (Confirmation screen.)]; assay type: functional
SUMO-activating enzyme [27] = biological target: T6, SUMO-activating enzyme (Homo sapiens, UniProt Q9UBT2); assay: blockers of SAE1/SAE2–UBC9 SUMO transfer – biochemical, HTRF, uHTS, primary screen (AID 2006); assay type: protein-complex assay
SUMO-activating enzyme [28] = biological target: T6, SUMO-activating enzyme; assay: blockers of UBC9-mediated SUMO conjugation – biochemical, AlphaScreen, SUMOylation inhibitor project, confirmation (AID 2018); assay type: functional
[29] = biological target: Likely tRNA 2'-phosphotransferase (Candida albicans (strain SC5314 / ATCC MYA-2876) (Yeast), UniProt Q5A7N4); assay: inhibition of Candida TPT1 enzyme activity – biochemical, fluorescence polarization, dose response (AID 2160)
[30] = biological target: Guanyl-specific ribonuclease T1 (Aspergillus oryzae (strain ATCC 42149 / RIB 40), UniProt P00651); assay: inhibition of ribonuclease T1 activity – biochemical, fluorescence polarization, 1536-well, counter-screen for TPT1 inhibitor project, dose response (AID 2167)
Guanyl-specific ribonuclease T1, sequence (P00651 whole entry): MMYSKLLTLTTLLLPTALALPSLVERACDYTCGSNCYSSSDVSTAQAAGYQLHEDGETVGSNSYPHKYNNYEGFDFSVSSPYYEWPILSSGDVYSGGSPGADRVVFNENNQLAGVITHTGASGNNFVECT

T6 sequence (Q9UBE0 whole entry): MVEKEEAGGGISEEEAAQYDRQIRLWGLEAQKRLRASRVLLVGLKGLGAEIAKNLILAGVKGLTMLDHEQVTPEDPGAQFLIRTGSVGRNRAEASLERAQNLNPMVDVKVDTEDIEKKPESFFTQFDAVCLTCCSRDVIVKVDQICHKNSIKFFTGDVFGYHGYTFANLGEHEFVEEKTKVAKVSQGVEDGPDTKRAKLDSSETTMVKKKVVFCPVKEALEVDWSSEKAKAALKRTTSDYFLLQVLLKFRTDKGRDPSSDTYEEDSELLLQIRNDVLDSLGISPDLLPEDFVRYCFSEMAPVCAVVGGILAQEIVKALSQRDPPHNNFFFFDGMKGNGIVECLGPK
T6 sequence (Q9UBT2 whole entry): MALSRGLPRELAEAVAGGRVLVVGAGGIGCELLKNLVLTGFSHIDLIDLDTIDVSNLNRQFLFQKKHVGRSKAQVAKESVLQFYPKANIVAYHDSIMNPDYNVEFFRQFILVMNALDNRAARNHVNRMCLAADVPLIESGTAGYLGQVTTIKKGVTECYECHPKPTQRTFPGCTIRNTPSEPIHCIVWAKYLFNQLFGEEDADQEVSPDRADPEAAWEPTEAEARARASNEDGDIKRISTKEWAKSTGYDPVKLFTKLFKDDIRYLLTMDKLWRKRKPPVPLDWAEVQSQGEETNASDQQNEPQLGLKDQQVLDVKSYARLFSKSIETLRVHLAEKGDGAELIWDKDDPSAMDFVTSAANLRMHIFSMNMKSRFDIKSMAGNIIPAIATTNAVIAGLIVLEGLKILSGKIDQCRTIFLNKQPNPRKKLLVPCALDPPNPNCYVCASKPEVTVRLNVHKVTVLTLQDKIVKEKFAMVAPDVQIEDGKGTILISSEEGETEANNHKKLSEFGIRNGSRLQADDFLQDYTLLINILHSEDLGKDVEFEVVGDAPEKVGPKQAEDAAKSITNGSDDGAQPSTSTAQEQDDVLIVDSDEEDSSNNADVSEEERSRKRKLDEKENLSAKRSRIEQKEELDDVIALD
T4 sequence (P41145 whole entry): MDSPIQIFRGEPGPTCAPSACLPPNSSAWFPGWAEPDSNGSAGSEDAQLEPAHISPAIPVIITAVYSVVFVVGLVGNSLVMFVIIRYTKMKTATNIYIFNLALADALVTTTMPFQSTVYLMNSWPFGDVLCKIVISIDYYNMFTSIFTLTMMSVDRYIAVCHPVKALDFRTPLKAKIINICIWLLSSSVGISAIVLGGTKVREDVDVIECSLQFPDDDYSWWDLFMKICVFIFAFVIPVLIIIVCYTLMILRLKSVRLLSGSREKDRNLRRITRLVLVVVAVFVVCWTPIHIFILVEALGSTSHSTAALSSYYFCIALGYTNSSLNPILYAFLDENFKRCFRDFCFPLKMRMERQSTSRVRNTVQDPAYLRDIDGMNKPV
T5 sequence (Q8VNN2 whole entry): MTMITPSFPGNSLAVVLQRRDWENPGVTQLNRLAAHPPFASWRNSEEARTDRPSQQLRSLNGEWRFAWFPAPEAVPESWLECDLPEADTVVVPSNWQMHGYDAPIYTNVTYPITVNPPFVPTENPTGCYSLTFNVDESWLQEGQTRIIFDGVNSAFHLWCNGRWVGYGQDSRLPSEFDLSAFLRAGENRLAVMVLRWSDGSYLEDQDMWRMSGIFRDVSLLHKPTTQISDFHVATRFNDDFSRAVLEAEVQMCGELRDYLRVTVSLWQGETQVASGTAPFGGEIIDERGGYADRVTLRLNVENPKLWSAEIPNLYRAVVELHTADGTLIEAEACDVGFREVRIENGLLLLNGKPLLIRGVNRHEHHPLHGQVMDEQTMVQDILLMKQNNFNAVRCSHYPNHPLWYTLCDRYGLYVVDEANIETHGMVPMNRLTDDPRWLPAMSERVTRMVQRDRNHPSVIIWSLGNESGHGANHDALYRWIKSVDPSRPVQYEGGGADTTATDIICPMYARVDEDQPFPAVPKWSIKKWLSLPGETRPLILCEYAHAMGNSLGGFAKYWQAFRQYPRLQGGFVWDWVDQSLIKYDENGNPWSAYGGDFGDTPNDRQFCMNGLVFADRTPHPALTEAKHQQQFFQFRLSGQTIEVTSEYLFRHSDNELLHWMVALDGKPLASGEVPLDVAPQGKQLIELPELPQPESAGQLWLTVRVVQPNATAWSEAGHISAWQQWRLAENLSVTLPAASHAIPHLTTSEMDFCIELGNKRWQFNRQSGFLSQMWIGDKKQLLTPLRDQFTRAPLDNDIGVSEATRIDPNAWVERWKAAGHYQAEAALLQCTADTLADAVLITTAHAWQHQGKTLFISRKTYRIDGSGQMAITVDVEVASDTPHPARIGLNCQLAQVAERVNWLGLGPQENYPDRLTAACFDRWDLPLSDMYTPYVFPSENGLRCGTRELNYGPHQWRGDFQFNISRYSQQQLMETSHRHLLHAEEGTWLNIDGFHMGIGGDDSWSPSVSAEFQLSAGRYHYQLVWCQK
Sphingosine 1-phosphate receptor 1, sequence (P21453 whole entry): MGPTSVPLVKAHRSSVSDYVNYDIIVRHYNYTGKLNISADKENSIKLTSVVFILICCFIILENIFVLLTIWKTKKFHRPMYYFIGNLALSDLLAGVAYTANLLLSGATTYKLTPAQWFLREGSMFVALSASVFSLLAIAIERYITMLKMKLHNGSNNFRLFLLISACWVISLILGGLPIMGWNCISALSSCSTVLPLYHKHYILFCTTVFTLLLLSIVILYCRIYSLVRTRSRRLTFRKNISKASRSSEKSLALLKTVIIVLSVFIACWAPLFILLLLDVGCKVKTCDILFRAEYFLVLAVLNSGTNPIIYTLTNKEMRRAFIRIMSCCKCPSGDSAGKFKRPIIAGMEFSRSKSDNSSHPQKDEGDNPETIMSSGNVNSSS
Likely tRNA 2'-phosphotransferase, sequence (Q5A7N4 whole entry): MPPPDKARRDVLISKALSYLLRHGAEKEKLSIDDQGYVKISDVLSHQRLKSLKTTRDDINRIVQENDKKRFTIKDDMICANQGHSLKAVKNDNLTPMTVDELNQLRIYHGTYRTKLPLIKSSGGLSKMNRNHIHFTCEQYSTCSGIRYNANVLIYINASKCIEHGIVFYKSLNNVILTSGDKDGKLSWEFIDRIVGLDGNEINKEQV
Sphingosine 1-phosphate receptor 4, sequence (O95977 whole entry): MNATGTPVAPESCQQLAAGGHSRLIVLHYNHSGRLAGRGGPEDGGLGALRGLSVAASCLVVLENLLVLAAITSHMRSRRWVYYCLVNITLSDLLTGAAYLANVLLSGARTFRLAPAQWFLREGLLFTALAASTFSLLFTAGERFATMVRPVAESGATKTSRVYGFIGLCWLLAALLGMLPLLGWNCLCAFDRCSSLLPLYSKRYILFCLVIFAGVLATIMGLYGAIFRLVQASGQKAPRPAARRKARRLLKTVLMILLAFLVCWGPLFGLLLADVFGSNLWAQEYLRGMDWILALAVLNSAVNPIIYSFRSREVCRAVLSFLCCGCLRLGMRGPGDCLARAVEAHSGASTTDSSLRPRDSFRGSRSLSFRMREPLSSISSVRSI
E3 ubiquitin-protein ligase Mdm2, sequence (Q00987 whole entry): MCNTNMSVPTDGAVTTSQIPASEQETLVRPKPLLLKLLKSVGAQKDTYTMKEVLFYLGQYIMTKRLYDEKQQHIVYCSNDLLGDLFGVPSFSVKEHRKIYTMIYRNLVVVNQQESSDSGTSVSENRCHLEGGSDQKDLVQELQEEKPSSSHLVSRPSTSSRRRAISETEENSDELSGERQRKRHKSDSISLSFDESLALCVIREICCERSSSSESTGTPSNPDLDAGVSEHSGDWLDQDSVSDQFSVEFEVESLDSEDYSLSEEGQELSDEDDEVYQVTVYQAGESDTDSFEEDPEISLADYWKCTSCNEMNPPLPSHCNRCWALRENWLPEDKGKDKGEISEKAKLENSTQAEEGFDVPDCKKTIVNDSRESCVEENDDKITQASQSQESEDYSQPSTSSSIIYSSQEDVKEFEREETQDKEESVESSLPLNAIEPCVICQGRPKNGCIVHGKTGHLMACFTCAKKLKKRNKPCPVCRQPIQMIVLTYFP
Mothers against decapentaplegic homolog 3, sequence (P84022 whole entry): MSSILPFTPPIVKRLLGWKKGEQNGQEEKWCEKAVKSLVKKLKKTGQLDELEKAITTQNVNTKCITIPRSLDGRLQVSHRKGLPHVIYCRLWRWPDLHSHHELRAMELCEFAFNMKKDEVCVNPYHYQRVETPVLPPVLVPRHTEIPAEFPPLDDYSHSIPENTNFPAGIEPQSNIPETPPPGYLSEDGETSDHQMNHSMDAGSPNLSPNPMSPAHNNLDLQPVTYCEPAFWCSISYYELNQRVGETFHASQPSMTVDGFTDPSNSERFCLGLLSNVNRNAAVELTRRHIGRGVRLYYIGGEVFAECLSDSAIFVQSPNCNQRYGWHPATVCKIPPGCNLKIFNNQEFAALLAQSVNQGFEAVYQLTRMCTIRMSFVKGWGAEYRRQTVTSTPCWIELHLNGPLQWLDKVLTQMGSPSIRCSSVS
Scavenger receptor class B member 1, sequence (Q61009 whole entry): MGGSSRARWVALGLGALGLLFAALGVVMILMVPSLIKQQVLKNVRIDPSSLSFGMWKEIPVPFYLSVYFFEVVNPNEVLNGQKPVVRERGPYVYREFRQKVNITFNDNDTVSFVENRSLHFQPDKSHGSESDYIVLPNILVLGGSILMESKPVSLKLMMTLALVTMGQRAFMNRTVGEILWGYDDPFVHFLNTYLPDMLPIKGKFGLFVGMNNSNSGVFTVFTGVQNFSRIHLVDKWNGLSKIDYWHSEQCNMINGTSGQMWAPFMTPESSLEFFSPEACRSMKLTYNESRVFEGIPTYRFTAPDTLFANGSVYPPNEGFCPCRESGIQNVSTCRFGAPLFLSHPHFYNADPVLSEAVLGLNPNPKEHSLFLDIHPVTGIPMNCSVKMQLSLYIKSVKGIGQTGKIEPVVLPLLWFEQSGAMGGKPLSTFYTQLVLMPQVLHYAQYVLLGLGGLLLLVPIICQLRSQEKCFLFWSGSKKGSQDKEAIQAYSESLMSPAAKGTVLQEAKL

SMILES: CN(CC(=O)Nc1ccc(F)c(F)c1)S(=O)(=O)c1cccc2nsnc12
- EC50 [1]: > 50 µM (not active)

SMILES: COc1ccc(C(c2cc3c(cc2O)OCO3)N2CCOCC2)cc1 (stereo unspecified)
- IC50 [2]: 6.51 µM (not active)

SMILES: COc1ccc2[nH]c(=O)c3c(c2c1)OC(C)(C)C=C3 [HAPLAMINE]
- AC50 (Cytochrome P450 2C19): 7.94 µM (inconclusive)
- AC50 [3]: 5.53 µM (active)
- AC50 [4]: 5.32 µM (active)
- AC50 (Cytochrome P450 2C9): 25.1 µM (inconclusive)
- AC50 [5]: 3.86 µM (active)
- AC50 [6]: 14.8 µM (active)
- AC50 [7]: 10.4 µM (active)

SMILES: CN(C)c1ccc(C(=O)Nc2nc3ccccc3n2Cc2ccc(Cl)cc2)cc1
- IC50 [8]: > 20 µM (inactive)
- IC50 (Tumor necrosis factor): > 20 µM (inactive)
- IC50 (HEK293): > 20 µM (inactive)
- IC50 [9]: > 20 µM (inactive)

SMILES: Nc1nc2ccccc2n1S(=O)(=O)c1ccc(Cl)cc1
- IC50 (Interleukin-8): > 5 µM (inactive)

SMILES: COc1cccc(C(=O)O/N=C(\N)c2ccccn2)c1
- EC50 [10]: 3.65 µM (active)
- AC50 [11]: 26.7 µM (active)

SMILES: COC(=O)c1c(C(=O)OC)n(CCCN)c2ccc(C)cc12
- IC50 (Protein Rev): > 79.4 µM (not active)

SMILES: CC(=O)c1c(C(C)=O)c(C)n(-c2ccc(C)c(NC(=O)c3ccccc3Cl)c2)c1C
- AC50 [12]: 0.043 µM (active)

SMILES: O=C(O)Cc1ccccc1Nc1c(Cl)cccc1Cl [DICLOFENAC]
- IC50 (Staphylococcus aureus): 0.943 µM (active)

SMILES: COc1ccc(NC(=O)/C(Cl)=C(/Cl)[S+]([O-])Cc2ccc(C)cc2)cn1 (stereo unspecified)
- CC50 [13]: 2.13 µM (active)
- EC50 (Wee1-like protein kinase): > 49.7 µM (not active)
- CC50 (HeLa): 1.12 µM (active)
- IC50 [14]: 2.26 µM (active)
- IC50 [15]: 29.8 µM (inactive)
- IC50 [16]: 4.71 µM
- IC50 [17]: 3.76 µM (active)
- IC50 [18]: 0.967 µM (active)
- EC50 (Beta-galactosidase [19]): > 40 µM (inactive)
- EC50 (Beta-galactosidase [20]): > 31.5 µM (inactive)
- IC50 [21]: 4.46 µM (active)
- EC50 [10]: 5.74 µM (active)
- IC50 [22]: 0.396 µM (active)
- AC50 (INS1): 0.855 µM (active)
- EC50 [23]: > 112 µM (not active)
- EC50 [24]: 0.96 µM (active)
- EC50 [25]: > 49.7 µM (not active)
- IC50 [26]: 0.879 µM (active)

SMILES: COc1cc(/C=C2\SC(=O)N(CC(=O)Nc3ccccc3F)C2=O)cc(Cl)c1O
- IC50 (SUMO-activating enzyme [27]): 15.6 µM (active)
- IC50 (SUMO-activating enzyme [28]): 22.1 µM (active)
- IC50 [29]: 0.275 µM (active)
- IC50 [30]: 0.238 µM (active)
